# Like-named read-outs stand apart in the source and are kept apart here.
# Columns and labels:
# [1] = Human clinical bioavailability study, oral versus i.v. paclitaxel; type: in vivo
# Method: An open label, two-treatment, single dose, two-period, cross-over, […] Paclitaxel BMS formulation (175 mg) in 11 patients (male or female) suffering from solid tumors, cancers and malignancies refractory to standard therapy were treated under fasting condition.
# In this part of the study, the oral course and IV course were randomized. […]
# The IV formulation of paclitaxel ([…]; Rhône-Poulenc Rorer/Aventis, Antony, France) was used for both IV and oral administration of the agent. One hour before oral paclitaxel administration, patients received 1 mg of oral granisetron and oral CsA capsules (500 mg). Patients who completed the first course of oral paclitaxel were eligible to receive IV paclitaxel.
# Pharmacokinetic monitoring was performed during course i.v. and oral paclitaxel administration. For plasma paclitaxel and metabolite concentrations, blood samples of 5 mL each were collected in heparinized tubes. After oral administration, blood samples were obtained before dosing, at time 0 min and then 15, 30, 45, 60, 75, 90 minutes, and 2, 3, 4, 7, 10, 24, 30, and 48 h after paclitaxel ingestion. […] After centrifugation, the plasma was transferred to a polypropylene storage tube and stored at −20° C. until analyzed. Paclitaxel and metabolite concentrations in plasma were determined using a validated high-performance liquid chromatography (HPLC) assay.
# [2] = female, FVB wild-type, mouse, in vivo
# Method: Another set of experiments were performed with female FVB wild-type mice between 9 weeks and 16 weeks of age. Mice were housed and handed according to institutional guidelines.
# For oral treatment with paclitaxel, with or without the inventive delivery system, 10 mg per g body weight of formulation was administered by gavage under light diethyl ether anesthesia. Blood samples were collected at 0, 15 min, 30 min, 1 h, 2 h, 4 h, 8 h, 12 h, and 16 h after oral administration.
# For intravenous administration, 10 mg per g body weight of an i.v. formulation of paclitaxel was injected into a tail vein under light diethyl ether anesthesia. Blood samples were collected at 0, 15 min, 30 min, 1 h, 2 h, 4 h, 8 h, 12 h, and 16 h after i.v. administration.
# Paclitaxel quantitation was based on the HPLC standard curves of the peak area and ratios of known amounts of paclitaxel to the internal standard peak from paclitaxel internal standard.
# MCF-7 cells = experiment: Cytotoxicity against MCF-7 cell growth; type: cell-based, human
# Method: The cellular uptake of non-targeted and folic acid (FA)-targeted tumor has affinity for folic acid (breast, tumor, ovarian tumors) microbeads as prepared above was evaluated in human breast carcinoma cell, MCF-7. The microbeads are made specifically to be retained by the tumor sites and tumors have affinity toward the drug and conjugate. To investigate the effect of time on the FA-targeted microbead uptake by FR-bearing cells, […]. MCF-7 cells were incubated with free rhodamine B (free R-B), plain micellar rhodamine B (DOMC/R-B) and FA-micellar rhodamine B (DOMC-FA/R-B) for various periods and visualized using fluorescence microscopy. The cytotoxicity of paclitaxel (PTX) in plain micelles (DOMC/PTX) and FA-micellar PTX (DOMC-FA/PTX) was investigated and compared with that of the free PTX and taxol injection using MCF-7 cells. […] In order to elucidate PTX-loaded micelles induced-apoptosis in MCF-7 cells, Hoechst staining of nuclei was observed after different treatments.
# [3] = female, C57BL6, mouse, in vivo
# Method: One set of experiments was performed in 21 female C57BL6 mice, 8 weeks of age. They were housed and handled according to institutional guidelines. Food and water were given ad libitum. All of the animal experiments were performed in full compliance with a protocol approved by the University Animal Use Committee.
# For the oral treatment with paclitaxel (with or without delivery system), 10 mg per gram body weight of inventive formulation was administered by gavage under light diethyl ether anesthesia. Blood samples were collected at, 0, 15 min, 30 min, 1 h, 2 h, 4 h, 8 h, 12 h, and 16 h after drug administration of the oral formulation.
# An i.v. formulation of paclitaxel 40 mg/kg was injected into a tail vein under light diethyl ether anesthesia at a dosage of 10 mg per gram body weight. Blood samples were collected at 0, 15 min, 30 min, 1 h, 2 h, 4 h, 8 h, 12 h, and 16 h after IV administration of paclitaxel.
# Blood samples were analyzed with a pre-calibrated, validated HPLC method using HPLC Equipment. […] The solvent eluent was monitored using a Varian UV-Visible spectro-photometric detector set at 227 nm. […]
# Paclitaxel quantitation was based on standard curves of the peak area and ratios of known amounts of paclitaxel to the internal standard peak from a paclitaxel internal standard. […]
smiles,measurement,setting,value
CC(=O)O[C@H]1C(=O)[C@@]2(C)[C@H]([C@H](OC(=O)c3ccccc3)[C@]3(O)C[C@H](OC(=O)[C@H](O)[C@@H](NC(=O)c4ccccc4)c4ccccc4)C(C)=C1C3(C)C)[C@]1(OC(C)=O)CO[C@@H]1C[C@@H]2O [paclitaxel],AUC,"[1]; both sexes, plasma, 75 mg/m2, oral 75 mg/m^2, without delivery system, read-out: mean AUC of orally administered paclitaxel",420 ± 140 ng·h/mL
same,"oral bioavailability (ratio of AUC after oral and after i.v., dose corrected)",[1]; without delivery system,4.3%±1.8
same,"oral bioavailability (ratio of AUC after oral and after i.v., dose corrected)",[2],6%±1.6
same,growth of MCF-7 cells,MCF-7 cells,inhibited the growth of MCF-7 cells
same,"oral bioavailability (ratio of AUC after oral and after IV, dose corrected)",[3],6%±1.6

# From patent US20150231069A1, “ORAL FORMULATIONS OF CHEMOTHERAPEUTIC AGENTS” (priority 2014, published 2015)
